Results on six compounds are retold here after PMC9134006 (RSC Advances, 2021).

The target of one experiment is hAChE (human AChE) (Homo sapiens, UniProt P22303). The experiment in a line: Inhibition of hAChE. It counts as biochemical. To be noted: for remaining activity at 10 µM: read-out: hAChE RA (residual activity) at 10 μM; for remaining activity at 100 µM: read-out: hAChE RA (residual activity) at 100 μM.
Another experiment concerns the target T1, hMAO-B (human MAO-B) (Homo sapiens, UniProt P27338).
T1 sequence (P27338 1-520): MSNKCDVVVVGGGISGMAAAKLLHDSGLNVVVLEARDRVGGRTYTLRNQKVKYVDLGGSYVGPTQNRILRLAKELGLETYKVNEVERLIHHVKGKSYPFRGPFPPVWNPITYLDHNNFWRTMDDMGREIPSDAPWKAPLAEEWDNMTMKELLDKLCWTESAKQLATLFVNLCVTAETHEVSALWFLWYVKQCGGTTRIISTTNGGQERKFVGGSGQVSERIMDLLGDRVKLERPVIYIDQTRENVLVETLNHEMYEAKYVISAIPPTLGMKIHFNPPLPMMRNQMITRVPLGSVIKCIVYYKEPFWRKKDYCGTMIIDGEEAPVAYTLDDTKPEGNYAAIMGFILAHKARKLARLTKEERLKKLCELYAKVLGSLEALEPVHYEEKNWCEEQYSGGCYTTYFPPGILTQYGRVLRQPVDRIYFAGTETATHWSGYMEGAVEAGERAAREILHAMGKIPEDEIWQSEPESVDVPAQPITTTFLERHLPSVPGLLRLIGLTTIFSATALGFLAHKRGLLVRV
The experiment in a line: Inhibition of hMAO-B. It counts as biochemical. The conditions noted are these: for remaining activity at 10 µM: read-out: hMAO-B RA (residual activity) at 10 μM; for remaining activity at 100 µM: read-out: hMAO-B RA (residual activity) at 100 μM; for inhibition of hMAO-B (in words): versus hAChE, hBChE, hMAO-A.

The target of another experiment is T2, hMAO-A (human MAO-A) (Homo sapiens, UniProt P21397).
T2 sequence (P21397 1-527): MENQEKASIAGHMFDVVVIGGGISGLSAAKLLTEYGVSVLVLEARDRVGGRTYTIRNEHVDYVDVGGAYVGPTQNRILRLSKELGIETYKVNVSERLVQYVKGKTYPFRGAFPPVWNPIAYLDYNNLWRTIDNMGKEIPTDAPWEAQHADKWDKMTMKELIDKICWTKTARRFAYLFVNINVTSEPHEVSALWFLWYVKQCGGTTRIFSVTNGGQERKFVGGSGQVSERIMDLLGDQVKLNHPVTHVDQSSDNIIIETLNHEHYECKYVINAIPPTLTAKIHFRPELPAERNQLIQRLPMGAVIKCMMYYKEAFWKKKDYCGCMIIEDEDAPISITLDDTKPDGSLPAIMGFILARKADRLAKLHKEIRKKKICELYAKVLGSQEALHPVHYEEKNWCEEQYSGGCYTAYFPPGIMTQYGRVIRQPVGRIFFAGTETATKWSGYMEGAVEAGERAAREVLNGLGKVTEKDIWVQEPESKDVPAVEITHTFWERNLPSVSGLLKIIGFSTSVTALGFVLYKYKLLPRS
The experiment in a line: Inhibition of hMAO-A. To be noted: for remaining activity at 10 µM: read-out: hMAO-A RA (residual activity) at 10 μM; for remaining activity at 100 µM: read-out: hMAO-A RA (residual activity) at 100 μM.

For a further experiment, the target named is hBChE (human BChE) (Homo sapiens, UniProt P06276). The experiment in a line: Inhibition of hBChE. It counts as biochemical. The conditions noted are these: for remaining activity at 10 µM: read-out: hBChE RA (residual activity) at 10 μM; for remaining activity at 100 µM: read-out: hBChE RA (residual activity) at 100 μM.
The conditions of experiment [1]: ref 29b,37; cited from earlier work.

Chain of hBChE (human BChE) (P06276 29-602): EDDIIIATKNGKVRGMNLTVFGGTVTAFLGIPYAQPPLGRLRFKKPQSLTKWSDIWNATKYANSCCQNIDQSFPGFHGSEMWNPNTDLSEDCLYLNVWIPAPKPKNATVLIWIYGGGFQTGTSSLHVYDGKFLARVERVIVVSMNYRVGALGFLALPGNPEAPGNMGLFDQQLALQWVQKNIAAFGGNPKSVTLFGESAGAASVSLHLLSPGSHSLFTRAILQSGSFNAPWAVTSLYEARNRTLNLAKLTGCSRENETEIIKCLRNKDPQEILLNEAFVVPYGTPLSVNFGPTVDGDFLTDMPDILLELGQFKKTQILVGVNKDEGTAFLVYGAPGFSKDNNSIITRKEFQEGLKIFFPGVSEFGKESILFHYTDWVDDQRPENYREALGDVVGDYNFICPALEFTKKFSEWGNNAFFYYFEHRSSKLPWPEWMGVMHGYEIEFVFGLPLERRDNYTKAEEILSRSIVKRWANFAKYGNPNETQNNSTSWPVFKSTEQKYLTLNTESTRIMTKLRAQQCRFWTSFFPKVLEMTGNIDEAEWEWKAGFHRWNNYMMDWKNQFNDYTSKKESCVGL
Chain of hAChE (human AChE) (P22303 32-614): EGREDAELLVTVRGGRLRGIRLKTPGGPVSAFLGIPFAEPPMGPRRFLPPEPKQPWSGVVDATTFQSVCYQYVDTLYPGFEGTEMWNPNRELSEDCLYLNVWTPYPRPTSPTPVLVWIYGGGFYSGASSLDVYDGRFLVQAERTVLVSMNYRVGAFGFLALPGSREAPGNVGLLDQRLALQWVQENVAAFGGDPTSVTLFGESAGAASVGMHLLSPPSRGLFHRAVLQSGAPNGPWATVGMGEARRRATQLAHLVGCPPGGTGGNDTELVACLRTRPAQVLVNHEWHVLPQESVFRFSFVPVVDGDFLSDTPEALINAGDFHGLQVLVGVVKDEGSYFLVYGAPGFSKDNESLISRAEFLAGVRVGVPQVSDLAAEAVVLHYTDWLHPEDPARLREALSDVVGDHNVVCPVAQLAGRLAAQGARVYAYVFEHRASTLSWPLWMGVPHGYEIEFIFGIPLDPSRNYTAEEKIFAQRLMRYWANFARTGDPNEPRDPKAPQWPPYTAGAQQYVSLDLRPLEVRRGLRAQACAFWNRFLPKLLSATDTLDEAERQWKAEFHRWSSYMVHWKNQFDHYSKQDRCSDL

As usually defined, the IC50 is the concentration that gives 50% inhibition. Read a low IC50 as higher potency. With `COc1ccc(-c2cnn3c(C(F)(F)F)cc(=O)[nH]c23)cc1` [Compound 5a, 3-(4-Methoxyphenyl)-7-(trifluoromethyl)pyrazolo[1,5-a]pyrimidin-5(4H)-one], at hAChE (human AChE), the remaining activity at 10 µM came to 93% and the remaining activity at 100 µM was 86%. At hMAO-B (human MAO-B), the IC50 turned out to be 35 µM, the remaining activity at 10 µM came out at 73%, the remaining activity at 100 µM worked out at 26% and the “inhibition of hMAO-B (in words)” value was “selectively inhibit hMAO-B in the micromolar range”. Further, on hMAO-A (human MAO-A), the remaining activity at 10 µM is 95% and the remaining activity at 100 µM is 99%. In addition, on hBChE (human BChE), the remaining activity at 10 µM was 90% and the remaining activity at 100 µM stood at 103%.
For the compound `COc1ccc2c(c1)c(CC(=O)O)c(C)n2C(=O)c1ccc(Cl)cc1` [Indomethacin, reference compound], the anti-inflammatory activity in experiment [1] is given as 84.2%.
On to `COc1cccc(-c2cnn3c(C(F)(F)F)cc(=O)[nH]c23)c1` [Compound 5f, 3-(3-Methoxyphenyl)-7-(trifluoromethyl)pyrazolo[1,5-a]pyrimidin-5(4H)-one], for which, on hAChE (human AChE), the remaining activity at 10 µM came to 91% and the remaining activity at 100 µM was 88%. Also, at hMAO-B (human MAO-B), the IC50 stood at 101 µM, the remaining activity at 10 µM was 80%, the remaining activity at 100 µM was 40% and the “inhibition of hMAO-B (in words)” value was “selectively inhibit hMAO-B in the micromolar range”. On hMAO-A (human MAO-A), the remaining activity at 10 µM is 92% and the remaining activity at 100 µM came out at 97%. Besides, on hBChE (human BChE), the remaining activity at 10 µM was 97% and the remaining activity at 100 µM came to 95%.
For `O=c1cc(C(F)(F)F)n2ncc(-c3ccc4c(c3)OCCO4)c2[nH]1` [Compound 5h, 3-(2,3-Dihydrobenzo[b][1,4]dioxin-6-yl)-7-(trifluoromethyl)pyrazolo[1,5-a]pyrimidin-5(4H)-one], on hAChE (human AChE), the remaining activity at 10 µM was 91% and the remaining activity at 100 µM was found to be 86%. On hMAO-B (human MAO-B), the IC50 turned out to be 5.36 µM, the remaining activity at 10 µM was determined as 36%, the remaining activity at 100 µM amounted to 8% and the “inhibition of hMAO-B (in words)” value is given as “selectively inhibit hMAO-B in the micromolar range”. On hMAO-A (human MAO-A), the remaining activity at 10 µM came to 110% and the remaining activity at 100 µM turned out to be 95%. Moreover, at hBChE (human BChE), the remaining activity at 10 µM came out at 94% and the remaining activity at 100 µM came out at 95%.
Take `FC(F)(F)c1cc(-c2ccc(Br)cc2)nc2c(-c3ccccc3)cnn12` [Compound 11h, 5-(4-Bromophenyl)-3-phenyl-7-(trifluoromethyl)pyrazolo[1,5-a]pyrimidine]: the anti-inflammatory activity in experiment [1] was 83.4%.
Consider `CC(=O)c1ccc(-c2cnn3c(C(F)(F)F)cc(=O)[nH]c23)cc1` [Compound 5i, 3-(4-Acetylphenyl)-7-(trifluoromethyl)pyrazolo[1,5-a]pyrimidin-5(4H)-one], for which, at hAChE (human AChE), the remaining activity at 10 µM worked out at 90% and the remaining activity at 100 µM is 91%. For the same compound, on hMAO-B (human MAO-B), the IC50 was 26.2 µM, the remaining activity at 10 µM came out at 75%, the remaining activity at 100 µM came to 21% and the “inhibition of hMAO-B (in words)” value is “selectively inhibit hMAO-B in the micromolar range”. Also, at hMAO-A (human MAO-A), the remaining activity at 10 µM is 100% and the remaining activity at 100 µM was 98%. Further, at hBChE (human BChE), the remaining activity at 10 µM worked out at 91% and the remaining activity at 100 µM amounted to 99%.
